# Test results from PubChem BioAssay (NCI).
#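 The concentration for 50% growth inhibition is given as GI50. TGI marks complete inhibition of growth.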
# Key:
# Experiment in all cases: NCI anticancer screen, dose series, 384-well format
# CAKI-1 renal = tested on: CAKI-1 renal
# A498 renal = tested on: A498 renal
# KM12 colon = tested on: KM12 colon
# IGROV1 ovarian = tested on: IGROV1 ovarian
# HT29 colon = tested on: HT29 colon
# MDA-MB-435 melanoma = tested on: MDA-MB-435 melanoma
# SF-295 CNS = tested on: SF-295 CNS
# T-47D breast = tested on: T-47D breast
# M14 melanoma = tested on: M14 melanoma
# UACC-62 melanoma = tested on: UACC-62 melanoma
# COLO 205 colon = tested on: COLO 205 colon
# MALME-3M melanoma = tested on: MALME-3M melanoma
# OVCAR-5 ovarian = tested on: OVCAR-5 ovarian
# NCI-H23 lung = tested on: NCI-H23 lung
# SNB-75 CNS = tested on: SNB-75 CNS
# NCI-H522 lung = tested on: NCI-H522 lung
# SF-268 CNS = tested on: SF-268 CNS
# ACHN renal = tested on: ACHN renal
# SF-539 CNS = tested on: SF-539 CNS
# NCI-H460 NSCLC = tested on: NCI-H460 NSCLC
# SK-MEL-2 melanoma = tested on: SK-MEL-2 melanoma
# HCT-15 colon = tested on: HCT-15 colon
# PC-3 prostate = tested on: PC-3 prostate
# TK-10 renal = tested on: TK-10 renal
# HCT-116 colon = tested on: HCT-116 colon
# BT-549 breast = tested on: BT-549 breast
# MDA-MB-468 breast = tested on: MDA-MB-468 breast
# SK-MEL-5 melanoma = tested on: SK-MEL-5 melanoma
# K-562 leukemia = tested on: K-562 leukemia
# NCI-H226 lung = tested on: NCI-H226 lung
# OVCAR-3 ovarian = tested on: OVCAR-3 ovarian
# HOP-92 NSCLC = tested on: HOP-92 NSCLC
# OVCAR-4 ovarian = tested on: OVCAR-4 ovarian
# A549 NSCLC = tested on: A549 NSCLC
# SW-620 colon = tested on: SW-620 colon
# SNB-19 CNS = tested on: SNB-19 CNS
# SN12C renal = tested on: SN12C renal
# RXF 393 renal = tested on: RXF 393 renal
# SK-OV-3 ovarian = tested on: SK-OV-3 ovarian
# MOLT-4 leukemia = tested on: MOLT-4 leukemia
# OVCAR-8 ovarian = tested on: OVCAR-8 ovarian
# U251 glioblastoma = tested on: U251 glioblastoma
# MCF7 breast = tested on: MCF7 breast
# 786-0 renal = tested on: 786-0 renal
# SR leukemia = tested on: SR leukemia
# HOP-62 NSCLC = tested on: HOP-62 NSCLC
# SK-MEL-28 melanoma = tested on: SK-MEL-28 melanoma
# DU-145 prostate = tested on: DU-145 prostate
# HS 578T breast = tested on: HS 578T breast
# UO-31 renal = tested on: UO-31 renal
# NCI-H322M lung = tested on: NCI-H322M lung
# UACC-257 melanoma = tested on: UACC-257 melanoma
# HL-60(TB) leukemia = tested on: HL-60(TB) leukemia
# EKVX NSCLC = tested on: EKVX NSCLC
# MDA-MB-231 breast = tested on: MDA-MB-231 breast
compound,measurement,setting,value
Cc1ccc(C(=O)Nc2cccc(C(F)(F)F)c2)cc1Nc1nc(-c2cccnc2)nc2c1cnn2C,GI50,CAKI-1 renal,972 nM
same,TGI,CAKI-1 renal,2150 nM
same,GI50,A498 renal,1210 nM
same,TGI,A498 renal,2950 nM
same,GI50,KM12 colon,1490 nM
same,TGI,KM12 colon,2980 nM
same,GI50,IGROV1 ovarian,782 nM
same,TGI,IGROV1 ovarian,2600 nM
same,GI50,HT29 colon,341 nM
same,TGI,HT29 colon,1330 nM
same,GI50,MDA-MB-435 melanoma,487 nM
same,TGI,MDA-MB-435 melanoma,2390 nM
same,GI50,SF-295 CNS,1720 nM
same,TGI,SF-295 CNS,3150 nM
same,GI50,T-47D breast,1290 nM
same,TGI,T-47D breast,2700 nM
same,GI50,M14 melanoma,291 nM
same,TGI,M14 melanoma,1410 nM
same,GI50,UACC-62 melanoma,309 nM
same,TGI,UACC-62 melanoma,1510 nM
same,GI50,COLO 205 colon,522 nM
same,TGI,COLO 205 colon,2220 nM
same,GI50,MALME-3M melanoma,222 nM
same,TGI,MALME-3M melanoma,757 nM
same,GI50,OVCAR-5 ovarian,1410 nM
same,TGI,OVCAR-5 ovarian,8450 nM
same,GI50,NCI-H23 lung,248 nM
same,TGI,NCI-H23 lung,1900 nM
same,GI50,SNB-75 CNS,1960 nM
same,TGI,SNB-75 CNS,4280 nM
same,GI50,NCI-H522 lung,1380 nM
same,TGI,NCI-H522 lung,2720 nM
same,GI50,SF-268 CNS,1700 nM
same,TGI,SF-268 CNS,4210 nM
same,GI50,ACHN renal,1030 nM
same,TGI,ACHN renal,2510 nM
same,GI50,SF-539 CNS,677 nM
same,TGI,SF-539 CNS,2060 nM
same,GI50,NCI-H460 NSCLC,383 nM
same,TGI,NCI-H460 NSCLC,1750 nM
same,GI50,SK-MEL-2 melanoma,240 nM
same,TGI,SK-MEL-2 melanoma,959 nM
same,GI50,HCT-15 colon,882 nM
same,TGI,HCT-15 colon,2160 nM
same,GI50,PC-3 prostate,1820 nM
same,TGI,PC-3 prostate,4550 nM
same,GI50,TK-10 renal,1370 nM
same,TGI,TK-10 renal,3130 nM
same,GI50,HCT-116 colon,372 nM
same,TGI,HCT-116 colon,1880 nM
same,GI50,BT-549 breast,1670 nM
same,TGI,BT-549 breast,3660 nM
same,GI50,MDA-MB-468 breast,1080 nM
same,TGI,MDA-MB-468 breast,2310 nM
same,GI50,SK-MEL-5 melanoma,466 nM
same,TGI,SK-MEL-5 melanoma,1820 nM
same,GI50,K-562 leukemia,12.2 nM
same,TGI,K-562 leukemia,29 nM
same,GI50,NCI-H226 lung,774 nM
same,TGI,NCI-H226 lung,2120 nM
same,GI50,OVCAR-3 ovarian,1490 nM
same,TGI,OVCAR-3 ovarian,3210 nM
same,GI50,HOP-92 NSCLC,1580 nM
same,TGI,HOP-92 NSCLC,5850 nM
same,GI50,OVCAR-4 ovarian,1590 nM
same,TGI,OVCAR-4 ovarian,4050 nM
same,GI50,A549 NSCLC,1380 nM
same,TGI,A549 NSCLC,2960 nM
same,GI50,SW-620 colon,955 nM
same,TGI,SW-620 colon,2260 nM
same,GI50,SNB-19 CNS,3540 nM
same,TGI,SNB-19 CNS,13300 nM
same,GI50,SN12C renal,2150 nM
same,TGI,SN12C renal,10300 nM
same,GI50,RXF 393 renal,137 nM
same,TGI,RXF 393 renal,1110 nM
same,GI50,SK-OV-3 ovarian,1880 nM
same,TGI,SK-OV-3 ovarian,3940 nM
same,GI50,MOLT-4 leukemia,593 nM
same,TGI,MOLT-4 leukemia,1890 nM
same,GI50,OVCAR-8 ovarian,1880 nM
same,TGI,OVCAR-8 ovarian,4790 nM
same,GI50,U251 glioblastoma,1630 nM
same,TGI,U251 glioblastoma,3240 nM
same,GI50,MCF7 breast,1310 nM
same,TGI,MCF7 breast,2620 nM
same,GI50,786-0 renal,1120 nM
same,TGI,786-0 renal,2410 nM
same,GI50,SR leukemia,390 nM
same,TGI,SR leukemia,1320 nM
same,GI50,HOP-62 NSCLC,1410 nM
same,TGI,HOP-62 NSCLC,3270 nM
same,GI50,SK-MEL-28 melanoma,319 nM
same,TGI,SK-MEL-28 melanoma,1840 nM
same,GI50,DU-145 prostate,1710 nM
same,TGI,DU-145 prostate,4340 nM
same,GI50,HS 578T breast,1060 nM
same,TGI,HS 578T breast,2310 nM
same,GI50,UO-31 renal,605 nM
same,TGI,UO-31 renal,2090 nM
same,GI50,NCI-H322M lung,2060 nM
same,TGI,NCI-H322M lung,4890 nM
same,GI50,UACC-257 melanoma,378 nM
same,TGI,UACC-257 melanoma,1890 nM
same,GI50,HL-60(TB) leukemia,80.6 nM
same,TGI,HL-60(TB) leukemia,1280 nM
same,GI50,EKVX NSCLC,1150 nM
same,TGI,EKVX NSCLC,3080 nM
same,GI50,MDA-MB-231 breast,181 nM
same,TGI,MDA-MB-231 breast,3870 nM
